# According to patent US7858612B2, “Therapeutic agent for inflammatory bowel diseases” (Meiji Seika Kaisha, Ltd., priority 2007, dated 2010):
# Like-named read-outs stand apart in the source and are kept apart here. Marks after values point to notes of the source that are not given here.
# Experiments:
# [1] = system: DSS induced rat IBD chronic model; assay: DSS induced rat IBD chronic model (therapeutic effect); format: in vivo, Wistar rats; settings: for Side effects such as inhibition of weight gain: rat, in vivo
# Method: Colitis was induced by freely allowing male 7 week-old Wistar rats (purchased from Japan SLC, Inc.) to ingest 3% DSS solution for 3 days, and subsequently chronic IBD was induced by freely allowing to ingest 1% DSS solution starting from the 4th day of the test.
# Compound A (2, 20 mg/kg/day), 5-aminosalicylic acid as a control (5-ASA: 200 mg/kg/day) and cyclosporine A (Cy A: 25 mg/kg/day) were administered to the animals starting from the 4th day of the test until the day of dissection (n=8 to 20).
# The property of feces in individual animal was observed until the day before dissection, and the soft feces score and the blood feces score were determined according to the same basis as shown in Test Example 3 to obtain the sum of the soft feces score and blood feces score as the feces score.
# Also, 1% Evans blue physiological saline was intravenously injected in an amount of 1 ml per rat on the day of dissection, and the animal was euthanized 30 minutes after that for excising the large intestine. After immobilizing the large intestine in the length of 7 to 8 cm from anus with 4% formalin buffer for 20 minutes, the intestine was longitudinally opened from the mesenterium side for photographing the rectal portion and measuring the rectum weight. The state and extent of eroded rectal portion were scored according to the following basis for making a macro observation score.
# Macro observation score (0-5)
# [0: normal, • 1: erosion formation in narrow ranges, • 2: weak erosion formation, without bleeding, • 3: moderate erosion formation and weak bleeding in narrow ranges, • 4: strong erosion formation and bleeding in narrow ranges, • 5: strong erosion formation and bleeding in wide ranges]
# A therapeutic effect of Compound B orally administered was examined in the same manner as in Test Example 4 except that Compound B (20 mg/kg/day) was used in place of Compound A (n=12).
# [2] = Test for converting Compound A into Compound B (oral 14C Compound A, Radio-HPLC); format: in vivo, Wistar rats; settings: for Detection in plasma: 15 minutes after oral 14C labeled Compound A 1 mg/kg, fasting rats; for Detection in bile: bile collected for 8 hours after oral 14C labeled Compound A 1 mg/kg; for Detection in urine: urine collected for 24 hours after oral 14C labeled Compound A 1 mg/kg
# Method: Male 8 week-old Wistar rats (purchased from Japan SLC, Inc.) under fasting conditions were orally administered with ^14C labeled Compound A at a dose of 1 mg/kg, and the amounts of Compound B in plasma, urine and bile were determined by Radio-HPLC.
# [3] = system: carrageenin induced paw edema in rats; assay: Carrageenin induced paw edema in rats; format: in vivo, Wistar rats; settings: for Volume of edema: 3 h after carrageenin, mean ± SE
# Method: To right hind paws of male 7 week-old Wistar rats (purchased from Japan SLC, Inc.) 0.1 ml of 1% λ-carrageenin was subcutaneously injected to cause paw edema reaction (n=5). Compound A at doses of 1 to 25 mg/kg and indomethacin at a dose of 5 mg/kg were orally administered 15 and 60 minutes before administration of carrageenin, respectively.
# Three hours after administration of carrageenin, when the paw edema reaction reached maximum, the effectiveness was evaluated from the volumes of the right hind paw edema.
# TNBS induced IBD model [4] = assay: Trinitrobenzene sulfonic acid (TNBS) induced rat IBD model (therapeutic effect); format: in vivo, SD rats; settings: 5 mg/kg × 2 oral, from 2 days after TNBS
# TNBS induced IBD model [5] = assay: as above; format: in vivo, SD rats
# Method: 8 week-old male SD rats (purchased from Charles River
# Laboratories Japan, Inc.) were intrarectally treated with TNBS to induce enteritis, and divided into groups 2 days after the treatment with TNBS to initiate the administration of the drugs. A solvent, Compound A (2, 20, 50 mg/kg/day), or prednisolone (6 mg/kg/day) was orally administered twice a day, and the rats were subjected to autopsy 8 days after administration for determining the macro observation score. The evaluation of the score was conducted by the method described in Table 4 according to the judgment method by JOHN L. WALLACE et al. (Gastroenterology 1989; 96: 29-36).
# Furthermore, the large intestine was cut to a length of 10 cm for measuring the wet weight of intestine.
# DSS induced IBD model = assay: 3% dextran sulfate sodium (DSS) induced acute rat IBD model (prophylactic effect); format: in vivo, Wistar rats; settings: for inhibition at 10 mg/kg/day / inhibition at 1 mg/kg/day / inhibition at 100 mg/kg/day: Rattus norvegicus, po, read-out: Inhibition rate (%); for ulcer area: Table 2 (title: ulcer area reduction effect), twice a day; for ulcer area / Feces score: mean ± SE; for Feces score: Table 3 (effectiveness on feces score)
# Text: IBD was induced by freely allowing male 7 week-old Wistar rats (purchased from Japan SLC, Inc.) to ingest 3% DSS solution (n=8). In the period of 7 days after initiating DSS administration, soft feces and blood feces scores were observed according to the following basis, and the sum of the soft feces score and blood feces score was obtained as the feces score of the individual animal.
# • Soft feces score (0 to 3) • [0: nothing abnormal detected (NAD), • 1: slightly soft, • 2: soft, • 3: diarrhea] • Blood feces score (0 to 3) • [0: nothing abnormal detected (NAD), • 1: blood in feces, • 2: bright-red blood adhered on feces, • 3: melena]
# 1% Evans blue physiological saline was intravenously injected in an amount of 1 ml per rat 8 days after DSS exposure, and the animal was euthanized 30 minutes after that for excising the large intestine. After immobilizing the large intestine in the length of 7 to 8 cm from anus with 4% formalin buffer for 20 minutes, the intestine was longitudinally opened from the mesenterium side for photographing the rectal portion. Ulcer area was calculated by image analysis.
# Compound A (10 mg/kg/day), or. sulfasalazine (100 mg/kg/day) or prednisolone (1 mg/kg/day) as a control compound was made into suspension in an agate mortar, which was orally administered twice a day at a dose of 5 ml/kg to each rat starting from a day before administration of DSS to a day before dissection. In this connection, 1% hydroxypropylmethyl cellulose solution (HPMC) was used as a solvent, which was administered at a dose of 5 ml/kg to the solvent treated group.
# [6] = cited from earlier work
# in vivo = assay: in vivo; set-up: species or system SD rats; settings: both sexes, SD, rat, po
# Method: To 6 week-old male and female SD rats (purchased from
# Charles River Laboratories Japan, Inc.) a solvent (hydroxymethyl cellulose) or Compound A (100, 300, 1000 mg/kg/day) was administered orally and repeatedly for 26 consecutive weeks (n=15).
# splenocytes = assay: Direct effect on the activation of T cells: cytokine production by ovalbumin-stimulated splenocytes (ELISA); format: cell-based, Balb/c mice; settings: for Production of IFNγ / Production of IL-2 / Production of IL-5: culture for 24 hours
# Method: 7 week-old male Balb/c mice (purchased from Japan SLC, Inc.) were sensitized with an aluminum hydroxide gel-ovalbumin suspension administered intraperitoneally or subcutaneously in both inguinal regions on the first and 14th days, and the spleen was excised on the 21st day for preparing a splenocyte suspension. After removal of erythrocytes, Compound B (10 μM) and ovalbumin were added to splenocytes suspended in a culture medium, and the mixture was cultured at 37° C. under a condition of 5% CO2.
# IL-4 in the supernatant after culture for 6 hours, and IL-2, IL-5 and IFNγ in the supernatant after culture for 24 hours were quantitatively determined by ELISA (ELISA kit manufactured by ENDOGEN).
# IBD = settings: ulcerative colitis and Crohn's disease, literature; cited from earlier work
# [7] = 20 mg/kg/day from 4th day, vs solvent treated group
smiles,measurement,setting,value
"Nc1ccc(O)c(C(=O)O)c1 [Compound 5-ASA, 5-aminosalicylic acid, reference compound]",Inhibitory effects in any evaluation items,[1]; 200 mg/kg/day from 4th day,significant inhibitory effects were not recognized
"COc1cc2[nH]c(=O)c3nn(C(OC(=O)OC(C)C)C(C)C)nc3c(=O)c2cc1OC (centres unmarked) [Compound A, 2-(1-Isopropoxycarbonyloxy-2-methylpropyl)-7,8-dimethoxy-4(5H),10-dioxo-2H-1,2,3-triazolo[4,5-c][1]benzoazepine]",Detection in plasma,[2],not detected
same,Detection in bile,[2],not detected
same,Metabolism of Compound A into Compound B on absorption,"[2]; oral 1 mg/kg, rats",nearly all of Compound A was metabolized into Compound B
same,Detection in urine,[2],not detected
same,Effect on the feces score on the day before dissection (FIG. 3),[1]; 2 mg/kg/day from 4th day,significant (P<0.005) ameliorating effect
same,Effect on the increase of rectum weight (FIG. 2),"[1]; 2 mg/kg/day from 4th day, vs solvent treated group","significant (P<0.005, P<0.05) ameliorating effect"
same,Effect on macro observation score (FIG. 4),"[1]; 2 mg/kg, P=0.0509 category test, P=0.1161 segmentation test",inhibitory tendency
same,Effect on the feces score on the day before dissection (FIG. 3),[1]; 20 mg/kg/day from 4th day,significant (P<0.005) ameliorating effect
same,Effect on the increase of rectum weight (FIG. 2),[1]; [7],"significant (P<0.005, P<0.05) ameliorating effect"
same,Effect on the shortening of large intestine (FIG. 1),[1]; [7],significant (P<0.01) ameliorating effect
same,Effect on macro observation score (FIG. 4),"[1]; 20 mg/kg/day, P=0.0006 category test, P=0.0003 segmentation test",significant ameliorating effect
same,Side effects such as inhibition of weight gain,[1],not observed
same,Volume of edema,[3]; 1 mg/kg oral 15 min before carrageenin,0.87 ± 0.04 mL
same,Volume of edema,[3]; 5 mg/kg oral 15 min before carrageenin,0.89 ± 0.04 mL
same,Volume of edema,[3]; 25 mg/kg oral 15 min before carrageenin,0.67 ± 0.05 mL
same,Inhibitory effect on paw edema,[3]; any doses (1 to 25 mg/kg oral),no inhibitory effect
same,Colonic ulceration score,TNBS induced IBD model [4],3.5 ± 0.5
same,Colonic ulceration score,"TNBS induced IBD model [5]; 1 mg/kg × 2 oral, from 2 days after TNBS",3.5 ± 0.4
same,Colonic ulceration score,"TNBS induced IBD model [5]; 25 mg/kg × 2 oral, from 2 days after TNBS",3.3 ± 0.3
same,Weight gain,TNBS induced IBD model [5]; Compound A treated group (2 to 50 mg/kg/day oral),significant inhibition of weight gain was not observed
same,Colonic ulceration score,"TNBS induced IBD model [5]; Table 6 (title: colonic wet weight of large intestine, 10 cm), 25 mg/kg × 2 oral",1.20 ± 0.04
same,Side effects,DSS induced IBD model; 10 mg/kg/day oral,without any side effects
same,inhibition at 10 mg/kg/day,"DSS induced IBD model; Table 2 (ulcer area reduction effect), 10 mg/kg/day oral",36.4%
same,inhibition at 10 mg/kg/day,"DSS induced IBD model; Table 3 (feces score), 10 mg/kg/day oral",40.7%
same,ulcer area,DSS induced IBD model; 10 mg/kg/day oral,291.3 ± 37.0
same,Feces score,DSS induced IBD model; 10 mg/kg/day oral,2.00 ± 0.53
same,Absorbability upon oral administration relative to Compound B,[6],seven times as large as that of Compound B
same,NOAEL at 26 weeks,in vivo,≥ 1000 mg/kg/day
"COc1cc2[nH]c(=O)c3nn[nH]c3c(=O)c2cc1OC [Compound B, 7,8-dimethoxy-4(5H),10-dioxo-1H-1,2,3-triazolo[4,5-c][1]benzoazepine]",Detection in plasma,[2],detected as the main metabolite
same,Detection in bile,[2],detected as the main metabolite
same,Detection in urine,[2],detected as the main metabolite
same,Production of IL-4,"splenocytes; 10 μM, culture for 6 hours",did not inhibit
same,Production of IFNγ,splenocytes; 10 μM,did not inhibit
same,Production of IL-2,splenocytes; 10 μM,did not inhibit
same,Production of IL-5,splenocytes; 10 μM,did not inhibit
same,Effect on macro observation score,[1]; 20 mg/kg/day oral,an inhibitory effect was recognized
same,Feces score on the day before dissection,"[1]; 20 mg/kg/day oral, n=12, solvent treated group 1.9±0.25, P<0.05",0.9±0.24
same,Side effects such as inhibition of weight gain,[1],not observed
"COc1ccc2c(c1)c(CC(=O)O)c(C)n2C(=O)c1ccc(Cl)cc1 [Indomethacin, indomethacin, reference compound]",Inhibitory effect on paw edema,[3]; 5 mg/kg oral,significant (p<0.01) inhibitory effect
same,Volume of edema,[3]; 5 mg/kg oral 60 min before carrageenin,0.48 ± 0.04 mL
"C[C@]12C=CC(=O)C=C1CC[C@@H]1[C@@H]2[C@@H](O)C[C@@]2(C)[C@H]1CC[C@]2(O)C(=O)CO [Prednisolone, prednisolone, reference compound]",Production of IFNγ,splenocytes; concentration not given,almost completely inhibited
same,Production of IL-2,splenocytes; concentration not given,almost completely inhibited
same,Production of IL-5,splenocytes; concentration not given,almost completely inhibited
same,Colonic ulceration score,"TNBS induced IBD model [5]; 3 mg/kg × 2 oral, from 2 days after TNBS",3.0 ± 0.5^b
same,Weight gain,TNBS induced IBD model [5]; 6 mg/kg/day oral,remarkable inhibition of (P<0.01) weight gain
same,Colonic ulceration score,"TNBS induced IBD model [5]; Table 6 (title: colonic wet weight of large intestine, 10 cm), 3 mg/kg × 2 oral",1.05 ± 0.09^bb
same,Weight gain (side effect),DSS induced IBD model; 1 mg/kg/day oral,significant weight gain inhibitory effect
same,inhibition at 1 mg/kg/day,"DSS induced IBD model; Table 2 (ulcer area reduction effect), 1 mg/kg/day oral",26.1%
same,inhibition at 1 mg/kg/day,"DSS induced IBD model; Table 3 (feces score), 1 mg/kg/day oral",40.7%
same,ulcer area,DSS induced IBD model; 1 mg/kg/day oral,337.5 ± 34.1
same,Feces score,DSS induced IBD model; 1 mg/kg/day oral,2.00 ± 0.42
"O=C(O)c1cc(/N=N/c2ccc(S(=O)(=O)Nc3ccccn3)cc2)ccc1O [Sulfasalazine, sulfasalazine]",inhibition at 100 mg/kg/day,"DSS induced IBD model; Table 2 (ulcer area reduction effect), 100 mg/kg/day oral",8.2%
same,inhibition at 100 mg/kg/day,"DSS induced IBD model; Table 3 (feces score), 100 mg/kg/day oral",22.2%
same,Feces score,DSS induced IBD model; 100 mg/kg/day oral,2.63 ± 0.50
O=C([O-])c1cc(=O)c2c(OCC(O)COc3cccc4oc(C(=O)[O-])cc(=O)c34)cccc2o1.[Na+].[Na+] [disodium cromoglycate],Effectiveness against IBD,IBD,ineffective against IBD
